Experimental findings from PMC8915624 (Antiviral Research, 2022) are described below.

One may read the CC50 as the concentration at which the toxic effect on the cells reaches its halfway point. Read a low CC50 as greater toxicity to the cells. One may read the IC50 as the concentration at which inhibition is half-maximal.

One series has as its system Vero-E6 cells. Put plainly: Cell viability assay. The settings on record: MTT, 72 h. In kind it is cell-based, African green monkey.
Series [1] relates to HCoV-OC43. In kind it is cell-based. The following applies: Vero-E6/OC43; MOI 0.1, 72 hpi, real-time RT-PCR. (In qPCR the cycle at which signal appears reflects the starting amount.)
Series [2] relates to SARS-CoV-2. In kind it is cell-based.
The test system of the next series is MRC-5 cells. Nature of the series: Cell viability assay. The settings on record: for CC50: MRC-5 cells, MTT, 72 h. In kind it is cell-based, Human.
Series [3] has as its system SARS-CoV-2. It counts as cell-based. The settings on record: Vero-E6/SARS-CoV-2; MOI 0.1, 72 hpi, real-time RT-PCR.
A further series relates to SARS-CoV-2 NP protein. It counts as cell-based.
Series [4] deals with HCoV-OC43. It counts as cell-based. The following applies: for IC50: MRC-5/OC43, MOI 0.1, 72 hpi, viral genome copies by real-time RT-PCR; for relative viral genome copy number in cell lysates and supernatants: 20 μM.
In series [5] the test system is HCoV-OC43. In kind it is cell-based. The settings on record: MRC-5, 72 hpi; 20 μM.
The test system of another series is HCoV-OC43 NP. In kind it is cell-based. The settings on record: MRC-5, MOI 1; 20 μM.

Like-named read-outs stand apart in the source and are kept apart here.

As to `NC(=O)[C@H](CCCN=C(N)CCl)NC(=O)c1ccccc1` [Cl-amidine], the CC50 is over 1 mM in the series with Vero-E6 cells and 949 µM with MRC-5 cells. The IC50 is 44.1 µM in the series on HCoV-OC43 [1], 95.2 µM in the series on SARS-CoV-2 [3] and 34.8 µM in the series on HCoV-OC43 [4]. Also, the “reduction in SARS-CoV-2 yield (plaque assay)” value in the series with SARS-CoV-2 [2] is given as 1 log. Also, in the series on SARS-CoV-2 NP protein, the “reduction of SARS-CoV-2 NP protein expression” value is given as about 50%. In addition, the “intra- and extra-cellular viral genome copy numbers” value in the series with HCoV-OC43 [4] (MRC-5, MOI 0.1, Cl-A 100 μM, BB-Cl 2.5 μM) is listed as “drastically reduced”.

In the series on MRC-5 cells, AFM30a returned a CC50 of 321 µM. Besides, in the series on HCoV-OC43 [5], the “reduction of the viral titer (plaque assay)” value is reported as “barely detectable”. In the series on HCoV-OC43 NP, the “OC43 NP protein expression levels (Western blot)” value is recorded as “slight decrease”. Further, the “inhibition of HCoV-OC43 replication rate (maximum within the range of concentrations tested)” value with HCoV-OC43 [4] (MRC-5, MOI 0.1, 72 hpi) is recorded as at most 40%. The “relative viral genome copy number in cell lysates and supernatants” value with HCoV-OC43 [4] (MRC-5, MOI 0.1) is recorded as “much less pronounced reduction”. Also, the IC50 in the series with HCoV-OC43 [4] is over 20 µM.

Take GSK199: the cell viability entry in the series with MRC-5 cells (MRC-5, 20 μM) is on record as “viable”. The CC50 with MRC-5 cells worked out at 133 µM. In the series on HCoV-OC43 [5], the “reduction of the viral titer (plaque assay)” value was about 2 log. Further, in the series with HCoV-OC43 NP, the “OC43 NP protein expression levels (Western blot)” value is “dramatic downregulation”. In addition, in the series with HCoV-OC43 [4] (MRC-5, 20 μM), the “viral replication (viral genome production)” value is reported as “complete blockade of viral replication”. Also, in the series with HCoV-OC43 [4] (MRC-5, MOI 0.1), the “relative viral genome copy number in cell lysates and supernatants” value was “drastically reduced”. This compound gave an IC50 in the series on HCoV-OC43 [4] of 0.6 µM.
